# Residues, ends and D or L forms follow the SMILES beside them.
# How the values were obtained:
# [1] = test system: Staphylococcus aureus USA300; conditions: S. aureus USA300
# Description: (§1) The MIC assays were performed as previously described ([43]). Briefly, peptides were plated in a 2-fold dilution series (50 μL/well) of Mueller-Hinton broth (MHB) in Costar 96-well cell culture plates (Corning, NY, USA). Three repeats were set for each concentration. E. coli ATCC 25922, A. hydrophila ATCC 7966, P. aeruginosa PAO1, P. aeruginosa FRD1, S. aureus ATCC 25923, S. agalactiae ATCC 13813, S. pneumoniae ATCC 49619, methicillin-resistant S. aureus ATCC 43300, and methicillin-resistant S. aureus USA300 were cultured in Luria-Bertani (LB) medium, while K. pneumoniae CMCC46117 was cultured in tryptic soy broth (TSB) medium. Incubation was done at 37°C and 150 × g for 12 h. Bacteria were transferred to fresh MHB at a ratio of 1% (vol/vol) and incubated to reach a logarithmic growth phase. Then, 50 μL of a bacterial suspension at 4 × 10^6 CFU/mL was added to each well. After incubation at 37°C for 22 ± 2 h, turbidity was measured using an EnSpire multimode plate reader (PerkinElmer, Singapore) at 595 nm.
# [2] = test system: P. aeruginosa FRD1; format: cell-based, Pseudomonas aeruginosa; conditions: FRD1, 2 h
# Description: as §1, with “After incubation at 37°C for 22 ± 2 h, turbidity was measured using an EnSpire multimode plate reader (PerkinElmer, Singapore) at 595 nm.” left out
# [3] = test system: Aeromonas hydrophila ATCC 7966; format: cell-based; conditions: ATCC 7966, 2 h
# Description: as §1, with “After incubation at 37°C for 22 ± 2 h, turbidity was measured using an EnSpire multimode plate reader (PerkinElmer, Singapore) at 595 nm.” left out
# [4] = test system: Escherichia coli ATCC 25922; format: cell-based; conditions: ATCC 25922, 2 h
# Description: as §1, with “After incubation at 37°C for 22 ± 2 h, turbidity was measured using an EnSpire multimode plate reader (PerkinElmer, Singapore) at 595 nm.” left out
# [5] = test system: Klebsiella pneumoniae CMCC46117; format: cell-based; conditions: CMCC46117, 2 h
# Description: as §1, with “After incubation at 37°C for 22 ± 2 h, turbidity was measured using an EnSpire multimode plate reader (PerkinElmer, Singapore) at 595 nm.” left out
# [6] = test system: Pseudomonas aeruginosa PAO1; format: cell-based; conditions: PAO1, 2 h
# Description: as §1, with “After incubation at 37°C for 22 ± 2 h, turbidity was measured using an EnSpire multimode plate reader (PerkinElmer, Singapore) at 595 nm.” left out
# [7] = test system: Staphylococcus aureus ATCC 25923; format: cell-based; conditions: ATCC 25923, 2 h
# Description: as §1, with “After incubation at 37°C for 22 ± 2 h, turbidity was measured using an EnSpire multimode plate reader (PerkinElmer, Singapore) at 595 nm.” left out
# [8] = test system: Streptococcus agalactiae ATCC 13813; format: cell-based; conditions: ATCC 13813, 2 h
# Description: as §1, with “After incubation at 37°C for 22 ± 2 h, turbidity was measured using an EnSpire multimode plate reader (PerkinElmer, Singapore) at 595 nm.” left out
# [9] = test system: Streptococcus pneumoniae ATCC 49619; format: cell-based; conditions: ATCC 49619, 2 h
# Description: as §1, with “After incubation at 37°C for 22 ± 2 h, turbidity was measured using an EnSpire multimode plate reader (PerkinElmer, Singapore) at 595 nm.” left out
# [10] = test system: Methicillin-resistant S. aureus ATCC 43300; format: cell-based, Staphylococcus aureus; conditions: ATCC 43300, 2 h
# Description: as §1, with “After incubation at 37°C for 22 ± 2 h, turbidity was measured using an EnSpire multimode plate reader (PerkinElmer, Singapore) at 595 nm.” left out
# [11] = test system: Methicillin-resistant S. aureus USA300; format: cell-based, Staphylococcus aureus; conditions: USA300, 2 h
# Description: as §1, with “After incubation at 37°C for 22 ± 2 h, turbidity was measured using an EnSpire multimode plate reader (PerkinElmer, Singapore) at 595 nm.” left out
# [12] = test system: E. coli ATCC 25922; assay: SYTOX green membrane permeability assay; format: cell-based, Escherichia coli; conditions: E. coli ATCC 25922, 5 μM SYTOX green, read every 1 min
# Description: The SYTOX green staining assay was performed to assess peptide-associated membrane damage ([47], [52]). E. coli ATCC 25922 and S. aureus ATCC 25923 cells in the mid-logarithmic phase were collected, washed thrice, and resuspended (5 × 10^7 CFU/mL) in buffer B (10 mM Tris-HCl, pH 7.4, at 25°C). The bacterial suspensions were mixed with 5 μM SYTOX green and incubated for 15 min at room temperature in the dark. Then, the mixtures were added to black, clear-bottom 96-well plates at a density of 100 μL/well. After peptide addition, SYTOX green uptake was monitored using an EnSpire multimode plate reader (PerkinElmer, Singapore) with an excitation wavelength of 485 nm and an emission wavelength of 520 nm. Each measurement interval was 1 min, totaling 30 to 60 times. Melittin was used as the positive control, while bovine serum albumin (BSA) was the negative control.
SMILES,MIC in 6 μM NH4Cl ([1]; 6 μM NH4Cl) [µg/mL],MIC in 1 mM MgCl2 ([1]; 1 mM MgCl2) [µg/mL],MIC in 2.5 mM CaCl2 ([1]; 2.5 mM CaCl2) [µg/mL],MIC in 4.5 mM KCl ([1]; 4.5 mM KCl) [µg/mL],MIC in 150 mM NaCl ([1]; 150 mM NaCl) [µg/mL],MIC in MS at concn 10% ([1]; 10% mouse serum) [µg/mL],MIC in MS at concn 20% ([1]; 20% mouse serum) [µg/mL],MIC in MS at concn 40% ([1]; 40% mouse serum) [µg/mL],"MIC in Control ([1]; control, bacteria treated with peptide only) [µg/mL]",MIC [2] [µg/mL],MIC [3] [µg/mL],MIC [4] [µg/mL],MIC [5] [µg/mL],MIC [6] [µg/mL],MIC [7] [µg/mL],MIC [8] [µg/mL],MIC [9] [µg/mL],MIC [10] [µg/mL],MIC [11] [µg/mL],SYTOX green fluorescence intensity [12]
CC[C@H](C)[C@H](NC(=O)CN)C(=O)NCC(=O)N[C@@H](C)C(=O)N[C@H](C(=O)N[C@@H](CC(C)C)C(=O)N[C@@H](CCCCN)C(=O)N[C@H](C(=O)N[C@@H](CC(C)C)C(=O)N[C@H](C(=O)N[C@H](C(=O)NCC(=O)N[C@@H](CC(C)C)C(=O)N1CCC[C@H]1C(=O)N[C@@H](C)C(=O)N[C@@H](CC(C)C)C(=O)N[C@H](C(=O)N[C@@H](CO)C(=O)N[C@@H](Cc1c[nH]c2ccccc12)C(=O)N[C@H](C(=O)N[C@@H](CCCCN)C(=O)N[C@@H](CCCNC(=N)N)C(=O)N[C@@H](CCCCN)C(=O)N[C@@H](CCCNC(=N)N)C(=O)N[C@@H](CCC(N)=O)C(=O)N[C@@H](CCC(N)=O)C(N)=O)[C@@H](C)CC)[C@@H](C)CC)[C@@H](C)O)[C@@H](C)O)C(C)C)C(C)C [Melittin],6.25,6.25,6.25,6.25,6.25,25.00,50.00,200.00,6.25,,,,,,,,,,,
CC[C@H](C)[C@H](NC(=O)[C@H](CCCCN)NC(=O)[C@H](CCSC)NC(=O)[C@H](C)NC(=O)[C@H](CC(C)C)NC(=O)[C@H](Cc1c[nH]cn1)NC(=O)[C@H](CCCNC(=N)N)NC(=O)[C@H](CCCCN)NC(=O)[C@H](CCCCN)NC(=O)[C@H](CCCCN)NC(=O)[C@H](CCSC)NC(=O)[C@H](CC(C)C)NC(=O)[C@H](CC(C)C)NC(=O)[C@H](CC(=O)O)NC(=O)[C@H](CC(C)C)NC(=O)[C@H](Cc1c[nH]cn1)NC(=O)[C@H](CCCCN)NC(=O)[C@H](CCCCN)NC(=O)[C@@H](NC(=O)[C@H](CCCNC(=N)N)NC(=O)[C@@H]1CCCN1C(=O)[C@H](Cc1c[nH]cn1)NC(=O)[C@H](C)N)[C@@H](C)CC)C(=O)N[C@@H](C)C(=O)N[C@@H](C)C(=O)N1CCC[C@H]1C(=O)O [chCCL27a-26] (H-AHPRIKKHLDLLMKKKRHLAMKIAAP-OH; N-terminus and C-terminus assumed),,,,,,,,,,25.00,>50.00,25.00,>50.00,25.00,12.50,25.00,25.00,25.00,25.00,fluorescence trends similar to the trends in E. coli cells treated with lcCCL28-25
CSCC[C@H](NC(=O)[C@H](CCCNC(=N)N)NC(=O)[C@H](CCCCN)NC(=O)[C@H](CCSC)NC(=O)[C@H](CC(C)C)NC(=O)[C@H](CCCCN)NC(=O)[C@H](CCC(N)=O)NC(=O)[C@H](CC(C)C)NC(=O)[C@H](Cc1ccccc1)NC(=O)[C@H](CCC(N)=O)NC(=O)[C@H](CCC(=O)O)NC(=O)[C@H](CCSC)NC(=O)[C@H](CCCCN)NC(=O)[C@@H]1CCCN1C(=O)[C@@H](NC(=O)[C@H](C)N)[C@@H](C)O)C(=O)N[C@@H](C)C(=O)N[C@@H](CCCNC(=N)N)C(=O)N[C@@H](CC(C)C)C(=O)N[C@@H](CCCCN)C(=O)N[C@@H](C)C(=O)N[C@@H](CO)C(=O)N[C@@H](C)C(=O)N[C@H](C(=O)O)C(C)C [drCCL27b-24] (H-ATPKMEQFLQKLMKRMARLKASAV-OH; N-terminus and C-terminus assumed),,,,,,,,,,25.00,>50.00,25.00,>50.00,25.00,25.00,25.00,25.00,25.00,25.00,fluorescence trends similar to the trends in E. coli cells treated with lcCCL28-25
CC[C@H](C)[C@H](NC(=O)[C@H](C)NC(=O)[C@H](CCCCN)NC(=O)[C@H](CCSC)NC(=O)[C@H](CCCCN)NC(=O)[C@H](CC(C)C)NC(=O)[C@@H]1CCCN1C(=O)[C@H](C)N)C(=O)N[C@@H](CC(C)C)C(=O)N[C@@H](CCC(=O)O)C(=O)N[C@H](C(=O)N[C@H](C(=O)N[C@@H](Cc1c[nH]cn1)C(=O)N[C@@H](CCCNC(=N)N)C(=O)N[C@@H](CCCNC(=N)N)C(=O)N[C@@H](CCSC)C(=O)N[C@@H](CCCCN)C(=O)N[C@@H](CCC(N)=O)C(=O)N[C@@H](CC(N)=O)C(=O)N[C@@H](CCCCN)C(=O)N[C@@H](CCSC)C(=O)N[C@@H](CCCCN)C(=O)N[C@@H](C)C(=O)N[C@@H](C)C(=O)N[C@@H](Cc1ccccc1)C(=O)O)C(C)C)[C@@H](C)CC [smCCL27b-25] (H-APLKMKAILEIVHRRMKQNKMKAAF-OH; N-terminus and C-terminus assumed),,,,,,,,,,25.00,>50.00,50.00,>50.00,50.00,25.00,25.00,25.00,>50.00,25.00,increased rapidly within 20 min
CC[C@H](C)[C@H](NC(=O)[C@H](CC(=O)O)NC(=O)[C@H](CCCCN)NC(=O)[C@H](Cc1ccccc1)NC(=O)[C@@H](NC(=O)[C@@H](NC(=O)[C@H](CCC(N)=O)NC(=O)[C@H](CC(=O)O)NC(=O)[C@@H](N)C(C)C)[C@@H](C)O)C(C)C)C(=O)N[C@@H](Cc1c[nH]c2ccccc12)C(=O)N[C@@H](Cc1c[nH]c2ccccc12)C(=O)N[C@@H](CCCNC(=N)N)C(=O)N[C@@H](CCSC)C(=O)N[C@@H](CCCCN)C(=O)N[C@@H](CCC(N)=O)C(=O)N[C@@H](Cc1c[nH]c2ccccc12)C(=O)N[C@@H](CCCCN)C(=O)N[C@@H](CCC(N)=O)C(=O)N[C@@H](CCCNC(=N)N)C(=O)N[C@H](C(=O)N[C@@H](CCCCN)C(=O)N[C@@H](CCCCN)C(=O)N[C@@H](CCCNC(=N)N)C(=O)N[C@@H](C)C(=O)N[C@@H](C)C(=O)N[C@@H](CCCCN)C(=O)N[C@@H](Cc1ccc(O)cc1)C(=O)N[C@@H](CC(N)=O)C(=O)N[C@H](C(=O)O)C(C)C)C(C)C [trCCL28-29] (H-VDQTVFKDIWWRMKQWKQRVKKRAAKYNV-OH; N-terminus and C-terminus assumed),,,,,,,,,,25.00,25.00,12.50,25.00,25.00,12.50,12.50,25.00,12.50,12.5,increased rapidly within 20 min

# From paper PMC9241943, “LcCCL28-25, Derived from Piscine Chemokine, Exhibits Antimicrobial Activity against Gram-Negative and Gram-Positive Bacteria In Vitro and In Vivo” (Microbiology Spectrum, 2022)
